Measurements reported in the NIST ThermoML archive (doi:10.1021/je200721d).
± gives the expanded uncertainty stated by the source.

Experiment: xn = mol fraction of the nth substance listed
Conditions: Liquid, Vibrating tube method

CCCCCCCC [octane] + CCCCCC
Conditions | mass density [kg/m3]
313.14 K, 18000 kPa, x2 = 0.1654 | 697.47 ± 0.39
313.14 K, 18000 kPa, x2 = 0.5749 | 683.06 ± 0.41
313.14 K, 18000 kPa, x2 = 0.7995 | 672.32 ± 0.42
313.14 K, 18000 kPa, x2 = 0.9308 | 665.28 ± 0.43
313.14 K, 19000 kPa, x2 = 0.1654 | 698.27 ± 0.4
313.14 K, 19000 kPa, x2 = 0.5749 | 683.89 ± 0.42
313.14 K, 19000 kPa, x2 = 0.7995 | 673.21 ± 0.43
313.14 K, 19000 kPa, x2 = 0.9308 | 666.2 ± 0.44
313.14 K, 20000 kPa, x2 = 0.1654 | 699.05 ± 0.41
313.14 K, 20000 kPa, x2 = 0.5749 | 684.72 ± 0.43
313.14 K, 20000 kPa, x2 = 0.7995 | 674.07 ± 0.44
313.14 K, 20000 kPa, x2 = 0.9308 | 667.1 ± 0.45
313.14 K, 21000 kPa, x2 = 0.1654 | 699.81 ± 0.42
313.14 K, 21000 kPa, x2 = 0.5749 | 685.52 ± 0.44
313.14 K, 21000 kPa, x2 = 0.7995 | 674.92 ± 0.45
313.14 K, 21000 kPa, x2 = 0.9308 | 667.97 ± 0.46
313.14 K, 22000 kPa, x2 = 0.1654 | 700.55 ± 0.43
313.14 K, 22000 kPa, x2 = 0.5749 | 686.32 ± 0.45
313.14 K, 22000 kPa, x2 = 0.7995 | 675.74 ± 0.46
313.14 K, 22000 kPa, x2 = 0.9308 | 668.8 ± 0.47
313.14 K, 23000 kPa, x2 = 0.1654 | 701.28 ± 0.44
313.14 K, 23000 kPa, x2 = 0.5749 | 687.1 ± 0.46
313.14 K, 23000 kPa, x2 = 0.7995 | 676.52 ± 0.47
313.14 K, 23000 kPa, x2 = 0.9308 | 669.6 ± 0.48
313.14 K, 24000 kPa, x2 = 0.1654 | 701.98 ± 0.44
313.14 K, 24000 kPa, x2 = 0.5749 | 687.85 ± 0.46
313.14 K, 24000 kPa, x2 = 0.7995 | 677.27 ± 0.48
313.14 K, 24000 kPa, x2 = 0.9308 | 670.36 ± 0.49
313.14 K, 25000 kPa, x2 = 0.1654 | 702.7 ± 0.45
313.14 K, 25000 kPa, x2 = 0.5749 | 688.59 ± 0.47
313.14 K, 25000 kPa, x2 = 0.7995 | 677.99 ± 0.49
313.14 K, 25000 kPa, x2 = 0.9308 | 671.1 ± 0.5
323.06 K, 1000 kPa, x2 = 0.5749 | 658.22 ± 0.27
323.06 K, 2000 kPa, x2 = 0.5749 | 659.25 ± 0.28
323.06 K, 3000 kPa, x2 = 0.5749 | 660.31 ± 0.28
323.06 K, 4000 kPa, x2 = 0.5749 | 661.34 ± 0.29
323.06 K, 5000 kPa, x2 = 0.5749 | 662.42 ± 0.3
323.06 K, 6000 kPa, x2 = 0.5749 | 663.46 ± 0.31
323.06 K, 7000 kPa, x2 = 0.5749 | 664.53 ± 0.32
323.06 K, 8000 kPa, x2 = 0.5749 | 665.61 ± 0.33
323.06 K, 9000 kPa, x2 = 0.5749 | 666.67 ± 0.33
323.06 K, 10000 kPa, x2 = 0.5749 | 667.73 ± 0.34
323.06 K, 11000 kPa, x2 = 0.5749 | 668.78 ± 0.35
323.06 K, 12000 kPa, x2 = 0.5749 | 669.81 ± 0.36
323.06 K, 13000 kPa, x2 = 0.5749 | 670.83 ± 0.37
323.06 K, 14000 kPa, x2 = 0.5749 | 671.84 ± 0.38
323.06 K, 15000 kPa, x2 = 0.5749 | 672.81 ± 0.39
323.06 K, 16000 kPa, x2 = 0.5749 | 673.78 ± 0.4
323.06 K, 17000 kPa, x2 = 0.5749 | 674.72 ± 0.41
323.06 K, 18000 kPa, x2 = 0.5749 | 675.63 ± 0.42
323.06 K, 19000 kPa, x2 = 0.5749 | 676.52 ± 0.43
323.06 K, 20000 kPa, x2 = 0.5749 | 677.38 ± 0.43
323.06 K, 21000 kPa, x2 = 0.5749 | 678.25 ± 0.44
323.06 K, 22000 kPa, x2 = 0.5749 | 679.1 ± 0.45
323.06 K, 23000 kPa, x2 = 0.5749 | 679.9 ± 0.46
323.06 K, 24000 kPa, x2 = 0.5749 | 680.71 ± 0.47
323.06 K, 25000 kPa, x2 = 0.5749 | 681.47 ± 0.48
323.07 K, 1000 kPa, x2 = 0.2199 | 672.17 ± 0.26
323.07 K, 2000 kPa, x2 = 0.2199 | 673.14 ± 0.27
323.07 K, 3000 kPa, x2 = 0.2199 | 674.14 ± 0.28
323.07 K, 4000 kPa, x2 = 0.2199 | 675.13 ± 0.28
323.07 K, 5000 kPa, x2 = 0.2199 | 676.14 ± 0.29
323.07 K, 6000 kPa, x2 = 0.2199 | 677.12 ± 0.3
323.07 K, 7000 kPa, x2 = 0.2199 | 678.12 ± 0.31
323.07 K, 8000 kPa, x2 = 0.2199 | 679.13 ± 0.32
323.07 K, 9000 kPa, x2 = 0.2199 | 680.12 ± 0.32
323.07 K, 10000 kPa, x2 = 0.2199 | 681.12 ± 0.33
323.07 K, 11000 kPa, x2 = 0.2199 | 682.09 ± 0.34
323.07 K, 12000 kPa, x2 = 0.2199 | 683.06 ± 0.35
323.07 K, 13000 kPa, x2 = 0.2199 | 684.02 ± 0.36
323.07 K, 14000 kPa, x2 = 0.2199 | 684.97 ± 0.37
323.07 K, 15000 kPa, x2 = 0.2199 | 685.89 ± 0.38
323.07 K, 16000 kPa, x2 = 0.2199 | 686.79 ± 0.38
323.07 K, 17000 kPa, x2 = 0.2199 | 687.68 ± 0.39
323.07 K, 18000 kPa, x2 = 0.2199 | 688.54 ± 0.4
323.07 K, 19000 kPa, x2 = 0.2199 | 689.38 ± 0.41
323.07 K, 20000 kPa, x2 = 0.2199 | 690.21 ± 0.42
323.07 K, 21000 kPa, x2 = 0.2199 | 691.03 ± 0.43
323.07 K, 22000 kPa, x2 = 0.2199 | 691.83 ± 0.44
323.07 K, 23000 kPa, x2 = 0.2199 | 692.58 ± 0.45
323.07 K, 24000 kPa, x2 = 0.2199 | 693.35 ± 0.45
323.07 K, 25000 kPa, x2 = 0.2199 | 694.1 ± 0.46
323.08 K, 1000 kPa, x2 = 0.1654 | 674.04 ± 0.26
323.08 K, 2000 kPa, x2 = 0.1654 | 675.02 ± 0.27
323.08 K, 3000 kPa, x2 = 0.1654 | 676 ± 0.28
323.08 K, 4000 kPa, x2 = 0.1654 | 676.97 ± 0.28
323.08 K, 5000 kPa, x2 = 0.1654 | 677.97 ± 0.29
323.08 K, 6000 kPa, x2 = 0.1654 | 678.97 ± 0.3
323.08 K, 7000 kPa, x2 = 0.1654 | 679.95 ± 0.31
323.08 K, 8000 kPa, x2 = 0.1654 | 680.93 ± 0.31
323.08 K, 9000 kPa, x2 = 0.1654 | 681.93 ± 0.32
323.08 K, 10000 kPa, x2 = 0.1654 | 682.9 ± 0.33
323.08 K, 11000 kPa, x2 = 0.1654 | 683.88 ± 0.34
323.08 K, 12000 kPa, x2 = 0.1654 | 684.84 ± 0.35
